This is an account of results in patent publication US8685936B2, “Sphingosine kinase inhibitor prodrugs” (Apogee Biotechnology Corporation, priority 2009, dated 2014).

Data set [1] has as its system mouse JC mammary adenocarcinoma tumors. The data set is described as follows: Antitumor activity, JC mammary adenocarcinoma tumors growing subcutaneously in Balb/c mice. It is filed as in vivo. As to conditions: 50 mg/kg of Compound 2 daily for five days per week. The procedure: FIG. 6. Antitumor activity of Compound 2 alone and in combination with gemcitabine. Murine JC mammary adenocarcinoma cells were injected subcutaneously into Balb/c mice and tumors were allowed to grow to approximately 150 mm^3. The animals were then treated with vehicle alone (▪), 1 mg/kg of gemcitabine weekly (▴), 50 mg/kg of Compound 2 daily for five days per week (▾) or a combination of gemcitabine plus Compound 2 (♦). Tumors were measured twice per week. The values shown represent the average tumor volume+/−the std. dev. for each group (n=8).
The antitumor activity of a representative prodrug SK inhibitor was evaluated using a […] tumor model that uses the mouse JC mammary adenocarcimona cell line growing subcutaneously in immunocompetent Balb/c mice (Lee et al., Oncol Res 14: 49 (2003)). These cells express elevated levels of SK activity relative to non-transformed cells, as well as the multidrug resistance phenotype due to P-glycoprotein activity. Murine JC mammary adenocarcinoma cells were injected subcutaneously into Balb/c mice and tumors were allowed to grow to approximately 100 mm^3. The animals were then treated with vehicle alone (▪), 1 mg/kg of gemcitabine weekly (▴), 50 mg/kg of Compound 2 daily for five days per week (▾) or a combination of gemcitabine plus Compound 2 (♦). Tumors were measured twice per week. […]

Data set [2] relates to TNBS-induced Crohn's Disease model. The data set is described as follows: TNBS-induced Crohn's Disease model. It is filed as in vivo. The method, then:
FIG. 12. Effects of Compound 1 and Compound 2 on colon histology in the TNBS-induced Crohn's Disease model. On Day 0, female Sprague-Dawley rats were administered TNBS using a stainless steel catheter that was inserted into the colon (8 cm proximal to the anus; 1.0 mL of solution containing 30 mg TNBS and 20% ethanol in PBS). On Days 0-5 animals received daily oral gavage of Vehicle (described in FIG. 7) or 50 mg/kg of Compound 1 or Compound 2 in Vehicle. On Day 6, the colons were removed, weighed and scored for macroscopic damage. The distal 6 cm were transected for subsequent histology and biochemical analyses. In this model, the macroscopic score is an index of histologic damage to the colon which increases as the disease progresses.
FIG. 13. Effects of Compound 1 and Compound 2 on colon weight in the TNBS-induced Crohn's Disease model. Colon weights were measured for the rats described in FIG. 12. Values represent the mean±std. dev. for 5-6 rats per group. In this model, colon weight increases as the disease progresses due to progressive inflammation-mediated edema.
FIG. 14. Effects of Compound 2 on neutrophil infiltration into the colon in the TNBS-induced Crohn's Disease model. Neutrophil infiltration was evaluated in the rats described in FIG. 12. Values represent the mean±std. dev. for 5-6 rats per group. In this model, MPO activity in the colon increases as a result of neutrophil infiltration into the colon as the disease progresses.
The trinitrobenzene sulfonic acid (TNBS) model in rats provides a rapid, reliable and reproducible IBD model that mimics the manifestations of Crohn's Disease. Application of the hapten TNBS to the colon in the presence of ethanol results in transmural infiltrative disease that is limited to the colon and appears to be an IL-12-driven, Th1-mediated immunologic response. […] TNBS induces measurable injury within 2 to 3 days, peak acute inflammation within a week, and gradual progression into chronic inflammation lasting about 2 months.
To test the efficacy of the Compounds, groups of female Sprague-Dawley rats were administered TNBS on Day 0 and treated with vehicle (as the negative control group), Compound 1 or Compound 2 on Days 0-5 by oral gavage at a dose of 50 mg/kg/day. […] Disease progression was evaluated by macroscopic score, colon weight and colon MPO activity at sacrifice. The macroscopic score measures macroscopic damage within the distal 6 cm of the colon using a system that considers the extent of and number of ulcerations.

For data set [3], the system named is Murine JC mammary adenocarcinoma cells. The data set can be described thus: Cytotoxicity, MTS cell viability assay. The data set is classed as cell-based. As to conditions: 72 hours. The text has this:
FIG. 5. Inhibition of tumor cell proliferation by Compound 1 and Compound 2. Murine JC mammary adenocarcinoma cells were exposed to the indicated concentrations of either Compound 1 (▪) or Compound 2 (▴) for 72 hr. At the end of the exposure, the number of viable tumor cells was quantified using the MTS assay. Values represent the fraction of surviving cells compared with DMSO-(vehicle)-treated control cells.
To further assess the biological efficacies of the Compounds in intact cells, Compound 1 and Compound 2 were evaluated for cytotoxicity using a murine breast cancer cell line. These experiments followed methods that have been extensively used. The cells were treated with varying doses of the test Compound for 72 hours, and then cell viability was measured using CellTiter 96® AQueous Non-Radioactive Cell Proliferation Assay (MTS) available from Promega Corporation. Values represent the mean±std. dev. percentage of cells that survive at each of the indicated concentrations of Compound 1 or Compound 2. […] However, the extent of cell killing and the potency for cell killing were greater for Compound 2 than Compound 1.
(Tetrazolium dyes change colour on reduction, which living cells bring about.)

The mark [4] stands for this setting: TNBS Day 0, 50 mg/kg/day oral gavage Days 0-5, Day 6, female Sprague-Dawley rats.

SMILES strings stand for the structures.

Regarding `CC(=O)Oc1ccc(CCNC(=O)C23CC4CC(C2)CC(c2ccc(Cl)cc2)(C4)C3)cc1OC(C)=O` [Compound 2, Acetic acid 2-acetoxy-5-(2-{[3-(4-chlorophenyl)-adamantane-1-carbonyl]-amino}ethyl)phenyl ester], in data set [1], the “tumor growth (tumor volume)” value is on record as “significant reduction of tumor growth”. The Compound-related toxicities result in data set [2] (50 mg/kg/day oral gavage Days 0-5, rats sacrificed on Day 6) is listed as “no Compound-related toxicities apparent”. Besides, in data set [2] (setting [4]), the “Macroscopic Score of colon damage” value is given as “reduced the Macroscopic Score”, the “colon MPO activity (granulocyte infiltration)” value was “reduced MPO activity in the colon” and the colon weight result is given as “reduced the elevation of the colon weight”. Besides, in data set [3], the “extent of cell killing, Compound 2 compared with Compound 1” value is listed as “greater”; the “inhibition of tumor cell proliferation (cell viability)” value is reported as “can inhibit tumor cell proliferation”; the “potency for cell killing, Compound 2 compared with Compound 1” value is “greater”.
